Experiment [1] has as its target Programmed cell death protein 1/Programmed cell death 1 ligand 1 (Homo sapiens, UniProt Q15116+Q9NZQ7). As to the kind of experiment: Inhibition of PD-1/PD-L1 interaction (unknown origin) incubated for 24 hrs by HTRF assay. Format: protein-complex assay.
The target in another experiment is T1, Splicing factor 45 (Homo sapiens, UniProt Q96I25).
T1 sequence (Q96I25 whole entry): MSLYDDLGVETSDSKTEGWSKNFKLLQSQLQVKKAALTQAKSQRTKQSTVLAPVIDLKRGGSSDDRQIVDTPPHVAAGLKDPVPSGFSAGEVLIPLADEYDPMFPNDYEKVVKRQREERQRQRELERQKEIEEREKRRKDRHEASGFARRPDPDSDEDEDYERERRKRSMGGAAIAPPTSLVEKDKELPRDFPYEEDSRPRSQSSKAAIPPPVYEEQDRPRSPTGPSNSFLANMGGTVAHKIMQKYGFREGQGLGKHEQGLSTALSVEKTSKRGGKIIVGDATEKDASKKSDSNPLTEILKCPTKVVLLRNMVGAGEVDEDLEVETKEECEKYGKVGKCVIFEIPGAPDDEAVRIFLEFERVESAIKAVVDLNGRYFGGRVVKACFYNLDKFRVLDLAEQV
As to the kind of experiment: Inhibition of His-tagged SPF45-UHM (unknown origin) (301 to 401 residues) expressed in Escherichia coli BL21 (DE3) cells by using biotinylated-RKSRWDETP as substrate preincubated for 30 mins followed by substrate addition and measured after 1 hr by AlphaScreen assay. (In general: Alpha assays give light when donor and acceptor beads are brought close together.)

Experiment [2] in a line: Inhibition of N-terminal His-tagged U2AF35-UHM (unknown origin) expressed in Escherichia coli Rosetta cells (DE3) incubated for 1 hr by HTRF method. Set-up: species or system Homo sapiens. Background: Time-resolved FRET reads energy transfer from a long-lived donor to a nearby acceptor.
For experiment [3], the target named is Vascular endothelial growth factor receptor 2 (Homo sapiens, UniProt P35968). As to the kind of experiment: Inhibition of human VEGFR2 (unknown origin) incubated for 1 hrs in presence of ATP by ELISA assay. (In general: An ELISA detects its analyte on a solid surface through an enzyme-linked reagent.)

SMILES strings stand for the structures.

Programmed cell death protein 1/Programmed cell death 1 ligand 1, sequence (Q15116 whole entry): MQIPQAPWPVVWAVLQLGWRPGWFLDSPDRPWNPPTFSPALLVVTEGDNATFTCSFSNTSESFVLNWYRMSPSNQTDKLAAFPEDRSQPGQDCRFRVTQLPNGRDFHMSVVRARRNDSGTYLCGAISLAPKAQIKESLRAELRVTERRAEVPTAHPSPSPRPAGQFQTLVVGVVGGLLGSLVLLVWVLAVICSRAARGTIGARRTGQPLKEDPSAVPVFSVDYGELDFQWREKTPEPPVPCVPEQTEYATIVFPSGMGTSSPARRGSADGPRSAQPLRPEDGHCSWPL
Programmed cell death protein 1/Programmed cell death 1 ligand 1, sequence (Q9NZQ7 whole entry): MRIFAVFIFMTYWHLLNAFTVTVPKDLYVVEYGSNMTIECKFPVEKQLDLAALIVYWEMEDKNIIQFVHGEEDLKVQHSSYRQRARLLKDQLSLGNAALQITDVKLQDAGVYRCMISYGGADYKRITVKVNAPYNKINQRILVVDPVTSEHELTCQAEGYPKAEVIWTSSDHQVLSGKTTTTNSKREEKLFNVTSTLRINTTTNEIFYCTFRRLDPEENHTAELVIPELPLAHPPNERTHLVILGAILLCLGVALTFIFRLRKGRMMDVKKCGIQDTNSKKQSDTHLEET
Vascular endothelial growth factor receptor 2, sequence (P35968 whole entry): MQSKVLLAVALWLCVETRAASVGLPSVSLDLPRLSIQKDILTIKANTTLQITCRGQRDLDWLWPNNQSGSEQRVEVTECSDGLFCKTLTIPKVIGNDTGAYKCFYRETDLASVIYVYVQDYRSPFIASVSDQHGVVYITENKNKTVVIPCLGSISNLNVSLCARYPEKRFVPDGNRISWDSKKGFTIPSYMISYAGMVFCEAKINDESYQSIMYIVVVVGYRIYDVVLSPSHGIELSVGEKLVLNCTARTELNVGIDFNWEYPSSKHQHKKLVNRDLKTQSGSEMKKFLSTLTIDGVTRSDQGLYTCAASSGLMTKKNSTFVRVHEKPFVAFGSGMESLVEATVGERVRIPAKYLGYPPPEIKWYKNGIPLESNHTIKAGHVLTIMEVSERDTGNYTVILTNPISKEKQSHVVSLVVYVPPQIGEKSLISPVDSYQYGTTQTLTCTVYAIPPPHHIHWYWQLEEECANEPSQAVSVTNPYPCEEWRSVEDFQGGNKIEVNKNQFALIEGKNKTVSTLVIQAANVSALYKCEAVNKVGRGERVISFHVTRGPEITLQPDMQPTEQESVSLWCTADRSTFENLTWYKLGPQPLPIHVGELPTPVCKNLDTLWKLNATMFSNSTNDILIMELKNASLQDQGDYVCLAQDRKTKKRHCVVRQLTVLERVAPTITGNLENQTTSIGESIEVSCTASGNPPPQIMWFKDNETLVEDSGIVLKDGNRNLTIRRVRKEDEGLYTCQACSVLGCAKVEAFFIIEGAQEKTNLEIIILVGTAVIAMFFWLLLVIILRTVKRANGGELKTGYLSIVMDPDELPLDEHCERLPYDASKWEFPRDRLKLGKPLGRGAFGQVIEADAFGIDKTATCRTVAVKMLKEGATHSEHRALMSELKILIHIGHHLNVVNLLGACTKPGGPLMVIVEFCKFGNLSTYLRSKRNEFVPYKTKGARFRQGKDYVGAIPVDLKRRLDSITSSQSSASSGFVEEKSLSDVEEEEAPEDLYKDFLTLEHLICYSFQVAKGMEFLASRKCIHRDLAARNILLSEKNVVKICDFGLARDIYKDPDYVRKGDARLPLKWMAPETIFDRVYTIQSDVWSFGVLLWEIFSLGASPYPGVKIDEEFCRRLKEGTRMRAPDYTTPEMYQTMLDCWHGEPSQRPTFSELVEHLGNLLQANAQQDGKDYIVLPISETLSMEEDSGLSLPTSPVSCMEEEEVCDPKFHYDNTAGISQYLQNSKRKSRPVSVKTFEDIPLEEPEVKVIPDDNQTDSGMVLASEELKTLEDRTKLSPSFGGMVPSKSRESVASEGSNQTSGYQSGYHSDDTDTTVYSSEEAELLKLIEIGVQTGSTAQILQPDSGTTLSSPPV

Regarding `COc1cc2c(cc1OC)N(CCCN1CCN(CCO)CC1)c1cc(Cl)ccc1S2`, the IC50 in experiment [1] worked out at 9.2 µM; against Splicing factor 45, 10.4 µM.
As for `CC(CCc1c[nH]c2ccccc12)N1C[C@H]2CC[C@@H](C1)C2N` (some centres undefined), the IC50 in experiment [2] was determined as 74.9 µM.
For the compound `O=C(Nc1cc(C(F)(F)F)ccc1N1CCCCC1)c1ccncc1`, in experiment [3], the IC50 is 0.96 µM.

The term IC50 denotes the midpoint of a concentration-inhibition curve.

Values taken from ChEMBL document CHEMBL5385977, “Small molecules modulating RNA splicing: a review of targets and future perspectives” (RSC Med Chem, 2024).
